Among the data in ChEMBL document CHEMBL3763133, “4-Arylbenzenesulfonamides as Human Carbonic Anhydrase Inhibitors (hCAIs): Synthesis by Pd Nanocatalyst-Mediated Suzuki-Miyaura Reaction, Enzyme Inhibition, and X-ray Crystallographic Studies” (J Med Chem, 2016) are Ki and Ratio Ki values, retold here.

SMILES strings stand for the structures.

Test [1] deals with T1, Carbonic anhydrase 1 (Homo sapiens, UniProt P00915). The test is described as follows: Inhibition of human carbonic anhydrase 1 incubated for 15 mins prior to testing by CO2 hydration-based stopped flow assay.
Target sequence in this assay (P00915 whole entry): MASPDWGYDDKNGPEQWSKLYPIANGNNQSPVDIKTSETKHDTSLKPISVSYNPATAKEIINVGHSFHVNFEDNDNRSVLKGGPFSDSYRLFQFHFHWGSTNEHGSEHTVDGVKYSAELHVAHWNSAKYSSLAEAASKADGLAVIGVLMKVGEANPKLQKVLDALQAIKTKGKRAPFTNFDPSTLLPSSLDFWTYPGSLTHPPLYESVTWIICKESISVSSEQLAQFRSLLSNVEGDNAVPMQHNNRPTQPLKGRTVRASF
Test [2] addresses Carbonic anhydrase 2 (Homo sapiens, UniProt P00918). Description: Inhibition of human carbonic anhydrase 2 incubated for 15 mins prior to testing by CO2 hydration-based stopped flow assay.
The target of test [3] is T2, Carbonic anhydrase 9 (Homo sapiens, UniProt Q16790). The test is described as follows: Inhibition of human carbonic anhydrase 9 incubated for 15 mins prior to testing by CO2 hydration-based stopped flow assay.
The target in test [4] is Carbonic anhydrase 12 (Homo sapiens, UniProt O43570). Description: Inhibition of human carbonic anhydrase 12 incubated for 15 mins prior to testing by CO2 hydration-based stopped flow assay.
Sequence of Carbonic anhydrase 12 (O43570 whole entry): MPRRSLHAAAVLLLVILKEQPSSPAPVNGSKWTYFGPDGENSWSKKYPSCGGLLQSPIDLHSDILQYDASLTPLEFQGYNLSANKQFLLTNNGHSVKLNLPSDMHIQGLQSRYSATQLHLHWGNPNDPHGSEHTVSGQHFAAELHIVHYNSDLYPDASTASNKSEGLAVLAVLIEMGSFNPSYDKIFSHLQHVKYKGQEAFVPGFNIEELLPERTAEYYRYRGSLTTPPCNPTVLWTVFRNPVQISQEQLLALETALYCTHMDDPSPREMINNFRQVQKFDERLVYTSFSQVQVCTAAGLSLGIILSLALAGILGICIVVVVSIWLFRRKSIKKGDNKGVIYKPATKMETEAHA
For test [5], the target named is T2, Carbonic anhydrase 9. Description: Potency index, ratio of Ki for acetazolamide to Ki for test compound for inhibition of human carbonic anhydrase 9.
The target in test [6] is T1, Carbonic anhydrase 1. The test is described as follows: Potency index, ratio of Ki for acetazolamide to Ki for test compound for inhibition of human carbonic anhydrase 1.
Target sequence in this assay (P00915 2-261 limits assumed): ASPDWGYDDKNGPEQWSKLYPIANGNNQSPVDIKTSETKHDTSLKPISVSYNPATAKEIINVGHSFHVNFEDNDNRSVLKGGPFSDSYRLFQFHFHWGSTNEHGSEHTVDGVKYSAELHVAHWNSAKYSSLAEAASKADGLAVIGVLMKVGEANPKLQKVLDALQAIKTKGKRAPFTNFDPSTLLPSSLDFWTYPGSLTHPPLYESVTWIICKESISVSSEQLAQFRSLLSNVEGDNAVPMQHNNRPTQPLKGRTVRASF

Regarding `NS(=O)(=O)c1ccc(-c2cc3ccccc3s2)cc1`, the inhibition constant (Ki) is 370 nM in test [1], 0.84 nM in test [2], 0.21 nM in test [3] and more than 10000 nM in test [4]. For the same compound, in test [5], the Ratio Ki came to 100.
As for `Cc1ccccc1-c1ccc(S(N)(=O)=O)cc1`, the results for the Ki in test [1], in test [2] and in test [4] were 3500 nM, 1.2 nM and 47 nM, respectively.
Regarding `NS(=O)(=O)c1ccc(-c2ccc(-c3ccc(Br)cc3)cc2)cc1`, the Ki in test [1] was more than 10000 nM; in test [2], 764 nM; in test [3] it was 224 nM; in test [4], 54.2 nM.
Turning to `NS(=O)(=O)c1ccc(-c2ccc3[nH]ccc3c2)cc1`, the Ki in test [1] turned out to be 24.5 nM; in test [2], 0.95 nM; in test [3], 0.17 nM; in test [4] it was 65 nM. The values for the Ratio Ki in test [6] and in test [5] were 10 and 100, respectively.
As for `NS(=O)(=O)c1ccc(-c2cc3ccccc3o2)cc1`, the Ki in test [1] is 185 nM; in test [2], 0.7 nM; in test [3] it was 0.37 nM; in test [4] it was more than 10000 nM. In addition, the Ratio Ki in test [5] came out at 100.
`COC(=O)c1cccc(-c2ccc(S(N)(=O)=O)cc2)c1`: the Ki in test [1] worked out at 6960 nM; in test [2], 14.2 nM; in test [3] it was 159 nM; in test [4] it was 19.5 nM.
For `NS(=O)(=O)c1ccc(-c2ccc3c(c2)OCO3)cc1` the same measures were more than 10000 nM, 18 nM, 258 nM and 5.2 nM.
The corresponding values for `N#Cc1ccc(-c2ccc(S(N)(=O)=O)cc2)cc1` are 1340 nM, 1.2 nM, 228 nM and 14.2 nM.
For `NS(=O)(=O)c1ccc(-c2cccc(-c3ccc(S(N)(=O)=O)cc3)c2)cc1` the same measures were more than 10000 nM, 397 nM, 276 nM and 55.6 nM.
As for `NS(=O)(=O)c1ccc(-c2ccccc2)cc1`, the inhibition constant Ki in test [1] was determined as 41.5 nM; in test [2] it was 0.79 nM; in test [3], 0.21 nM; in test [4], 92.7 nM. In addition, the Ratio Ki in test [6] came out at 6; in test [5], 100.
Consider `CC(C)c1ccccc1-c1ccc(S(N)(=O)=O)cc1`, for which the Ki in test [1] turned out to be 146 nM; in test [2] it was 0.98 nM; in test [4], 0.58 nM.
As for `NS(=O)(=O)c1ccc(-c2cnc3ccccc3c2)cc1`, the Ki in test [1] was 35.2 nM; in test [2] it was 2.5 nM; in test [3], 0.18 nM; in test [4] it was 760 nM. In addition, the figures for the Ratio Ki in test [6] and in test [5] were 6 and 100, respectively.
With `COc1cc(-c2ccc(S(N)(=O)=O)cc2)cc(OC)c1OC`, the inhibitory constant (Ki) came to 9520 nM in test [1], 19.1 nM in test [2], 259 nM in test [3] and 32.2 nM in test [4].
With `NS(=O)(=O)c1ccc(-c2cccc(C=O)c2)cc1`, the results for the Ki in test [1], in test [2] and in test [4] were 1180 nM, 2.1 nM and 0.58 nM, respectively.
For the compound `NS(=O)(=O)c1ccc(-c2cccnc2)cc1`, the Ki in test [1] is 2400 nM; in test [2], 16.6 nM; in test [3], 78.1 nM; in test [4], 20.3 nM.
With `NS(=O)(=O)c1ccc(-c2cn(S(=O)(=O)c3ccccc3)c3ccccc23)cc1`, the Ki in test [1] is 83.6 nM; in test [2], 0.68 nM; in test [3], 0.24 nM; in test [4], 96.7 nM. For the same compound, the Ratio Ki in test [5] was 100.
On to `NS(=O)(=O)c1ccc(-c2ccc(-c3ccc(S(N)(=O)=O)cc3)cc2)cc1`, for which the inhibition constant Ki in test [1] is more than 10000 nM; in test [2], 324 nM; in test [3], 240 nM; in test [4], 4.9 nM.
On to `NS(=O)(=O)c1ccc(-c2ccc3ccccc3c2)cc1`, for which the Ki in test [1] is 1000 nM; in test [2], 0.69 nM; in test [3], 0.22 nM; in test [4], more than 10000 nM. Besides, in test [5], the Ratio Ki came to 100.
Regarding `Nc1ccc(-c2ccc(S(N)(=O)=O)cc2)cc1`, the Ki came to 3700 nM in test [1], 12.3 nM in test [2] and 36.5 nM in test [4].
Regarding `NS(=O)(=O)c1ccc(-c2cc3ccccc3n2S(=O)(=O)c2ccccc2)cc1`, the Ki in test [1] is more than 10000 nM; in test [2], 11.7 nM; in test [3], 100 nM; in test [4], 33.9 nM.
The corresponding values for `NS(=O)(=O)c1ccc(-c2ccc(Cn3cccn3)cc2)cc1` are 6970 nM, 11.1 nM, 216 nM and 38.3 nM.
The corresponding values for `NS(=O)(=O)c1ccc(-c2cc3ccccc3[nH]2)cc1` are 656 nM, 10.2 nM, 124 nM and 5.6 nM.
For `COc1ccc2[nH]c(-c3ccc(S(N)(=O)=O)cc3)cc2c1`, the inhibitory constant (Ki) in test [1] was found to be 2640 nM; in test [2], 764 nM; in test [3] it was 156 nM; in test [4] it was 415 nM.
As for `Nc1cccc(-c2ccc(S(N)(=O)=O)cc2)c1`, the Ki in test [1] was determined as 2340 nM; in test [2], 9.3 nM; in test [3] it was 126 nM; in test [4], 4.3 nM.

The Ki is the equilibrium dissociation constant of an inhibitor or competing ligand from its target. High values mean weaker binding, low ones tighter binding.
